Measurements: PubChem BioAssay AID248 (DTP/NCI, 2004)
“And” between values parts separate entries of the source, which are not always exact repeats. Equal entries are not always repeated. Inconclusive results and toxic doses are left out. No stated cut-off is given here; in the data, active means T/C of 150% or more; inactive means T/C below 125%.

Tested on: L1210 leukemia ip in BDF1 mice, survival T/C
Assay: NCI In Vivo Anticancer Drug Screen. Data for tumor model L1210 Leukemia (intraperitoneal) in B6D2F1 (BDF1) mice
Settings: endpoint: mean survival time, higher = longer survival
Outline: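 Tumor cells were implanted, animals were treated, and survival was followed. The result divides the treated measurement by the vehicle-control measurement.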

[1] = dose: 50.0 mg/kg/injection, schedule: Q01DX009 (ip), vehicle: saline
[2] = dose: 50.0 mg/kg/injection, schedule: Q04DX003 (ip), vehicle: saline
[3] = dose: 100.0 mg/kg/injection, schedule: Q01DX009 (ip), vehicle: saline
[4] = dose: 100.0 mg/kg/injection, schedule: Q04DX003 (ip), vehicle: saline
[5] = dose: 200.0 mg/kg/injection, schedule: Q01DX009 (ip), vehicle: saline
[6] = dose: 200.0 mg/kg/injection, schedule: Q04DX003 (ip), vehicle: saline
[7] = dose: 25.0 mg/kg/injection, schedule: Q01DX009 (ip), vehicle: Klucel (hydroxypropylcellulose) (HPC)
[8] = dose: 100.0 mg/kg/injection, schedule: Q01DX009 (ip), vehicle: Klucel (hydroxypropylcellulose) (HPC)
[9] = dose: 100.0 mg/kg/injection, schedule: Q04DX003 (ip), vehicle: Klucel (hydroxypropylcellulose) (HPC)
[10] = dose: 400.0 mg/kg/injection, schedule: Q04DX003 (ip), vehicle: Klucel (hydroxypropylcellulose) (HPC)
[11] = dose: 100.0 mg/kg/injection, schedule: Q01DX009 (ip), vehicle: saline with Tween-80
[12] = dose: 100.0 mg/kg/injection, schedule: Q04DX003 (ip), vehicle: saline with Tween-80
[13] = dose: 200.0 mg/kg/injection, schedule: Q01DX009 (ip), vehicle: saline with Tween-80
[14] = dose: 200.0 mg/kg/injection, schedule: Q04DX003 (ip), vehicle: saline with Tween-80
[15] = dose: 400.0 mg/kg/injection, schedule: Q01DX009 (ip), vehicle: saline with Tween-80
[16] = dose: 400.0 mg/kg/injection, schedule: Q04DX003 (ip), vehicle: saline with Tween-80
[17] = dose: 100.0 mg/kg/injection, schedule: Q04DX002 (ip), vehicle: saline with Tween-80
[18] = dose: 200.0 mg/kg/injection, schedule: Q04DX002 (ip), vehicle: saline with Tween-80
[19] = dose: 400.0 mg/kg/injection, schedule: Q04DX002 (ip), vehicle: saline with Tween-80

Measured: T/C

CCCC1(CCC)CN(CO)C1=O
inactive: dose: 25.0 mg/kg/injection, schedule: Q01DX009 (ip), vehicle: saline 102 % of control | dose: 25.0 mg/kg/injection, schedule: Q04DX003 (ip), vehicle: saline 93 % of control | [1] 102 % of control | [2] 98 % of control | [3] 100 % of control | [4] 104 % of control | [5] 97 % of control | [6] 104 % of control | dose: 400.0 mg/kg/injection, schedule: Q04DX003 (ip), vehicle: saline 88 % of control

O=CC(=O)c1ccc(O)cc1
inactive: dose: 50.0 mg/kg/injection, schedule: Q01DX009 (ip), vehicle: saline sonified 114 % of control | [2] 111 % of control | dose: 66.0 mg/kg/injection, schedule: Q04DX003 (ip), vehicle: saline 97 % of control | dose: 100.0 mg/kg/injection, schedule: Q01DX009 (ip), vehicle: saline sonified 119 % of control | [4] 103 % of control and 111 % of control | dose: 150.0 mg/kg/injection, schedule: Q04DX003 (ip), vehicle: saline 103 % of control | [6] 117 % of control

CCN(CC)CC(O)c1ccnc2c([N+](=O)[O-])cc(OC)cc12 (stereo not drawn)
inactive: dose: 75.0 mg/kg/injection, schedule: Q01DX001 (ip), vehicle: acetone 106 % of control | dose: 150.0 mg/kg/injection, schedule: Q01DX001 (ip), vehicle: acetone 102 % of control | dose: 300.0 mg/kg/injection, schedule: Q01DX001 (ip), vehicle: acetone 91 % of control

CCCCCCCCCC(=O)N/N=C\c1cccc2ccccc12
inactive: [7] 90 % of control | dose: 50.0 mg/kg/injection, schedule: Q01DX009 (ip), vehicle: Klucel (hydroxypropylcellulose) (HPC) 103 % of control | [8] 87 % of control

CS(=O)(=O)Oc1ccc2cc(Br)ccc2c1
inactive: dose: 100.0 mg/kg/injection, schedule: Q01DX001 (ip), vehicle: carboxymethylcellulose (CMC) 102 % of control | dose: 200.0 mg/kg/injection, schedule: Q01DX001 (ip), vehicle: carboxymethylcellulose (CMC) 100 % of control | dose: 400.0 mg/kg/injection, schedule: Q01DX001 (ip), vehicle: carboxymethylcellulose (CMC) 107 % of control

CS(=O)CC(=O)c1ccc(C(=O)O)cc1 (stereo not drawn)
inactive: dose: 100.0 mg/kg/injection, schedule: Q04DX003 (ip), vehicle: other 107 % of control | dose: 200.0 mg/kg/injection, schedule: Q04DX003 (ip), vehicle: other 98 % of control | dose: 400.0 mg/kg/injection, schedule: Q04DX003 (ip), vehicle: other 101 % of control

CC(C)NCC(O)c1ccc(O)c(O)c1 (stereo not drawn)
inactive: [1] 103 % of control | dose: 75.0 mg/kg/injection, schedule: Q01DX001 (ip), vehicle: saline 105 % of control | [8] 108 % of control and 111 % of control | [3] 110 % of control | [9] 104 % of control | dose: 150.0 mg/kg/injection, schedule: Q01DX001 (ip), vehicle: saline 100 % of control | dose: 200.0 mg/kg/injection, schedule: Q01DX009 (ip), vehicle: Klucel (hydroxypropylcellulose) (HPC) 113 % of control | [5] 114 % of control | dose: 200.0 mg/kg/injection, schedule: Q04DX003 (ip), vehicle: Klucel (hydroxypropylcellulose) (HPC) 100 % of control | dose: 300.0 mg/kg/injection, schedule: Q01DX001 (ip), vehicle: saline 123 % of control | [10] 100 % of control

CSc1nncc(-c2ccccc2)n1
inactive: dose: 25.0 mg/kg/injection, schedule: Q04DX003 (ip), vehicle: Klucel (hydroxypropylcellulose) (HPC) 97 % of control | dose: 50.0 mg/kg/injection, schedule: Q04DX003 (ip), vehicle: Klucel (hydroxypropylcellulose) (HPC) 96 % of control | dose: 100.0 mg/kg/injection, schedule: Q01DX001 (ip), vehicle: Klucel (hydroxypropylcellulose) (HPC) 100 % of control | [9] 102 % of control

Nc1cc2c3ccccc3ncc2c2ccccc12
inactive: [11] 106 % of control | [12] 104 % of control | [13] 108 % of control | [14] 94 % of control | [15] 108 % of control | [16] 105 % of control

COc1ccc(OC)c(NC(=O)c2ccccc2Cl)c1
inactive: [11] 93 % of control and 102 % of control | [17] 103 % of control and 111 % of control | [12] 95 % of control | [13] 94 % of control and 101 % of control | [18] 93 % of control and 100 % of control | [14] 94 % of control | [15] 96 % of control | [19] 103 % of control and 104 % of control | [16] 97 % of control

S=C(NCc1ccccc1)[S][Sn]([c]1ccccc1)([c]1ccccc1)[c]1ccccc1
inactive: dose: 5.0 mg/kg/injection, schedule: Q01DX001 (ip), vehicle: steriod suspending solution 101 % of control | dose: 10.0 mg/kg/injection, schedule: Q01DX001 (ip), vehicle: steriod suspending solution 103 % of control | dose: 20.0 mg/kg/injection, schedule: Q01DX001 (ip), vehicle: steriod suspending solution 93 % of control | dose: 40.0 mg/kg/injection, schedule: Q01DX001 (ip), vehicle: steriod suspending solution 113 % of control | dose: 80.0 mg/kg/injection, schedule: Q01DX001 (ip), vehicle: steriod suspending solution 104 % of control

O=C1c2ccccc2C(=O)c2c(NCCN3CCOCC3)ccc(NCCN3CCOCC3)c21
inactive: dose: 87.5 mg/kg/injection, schedule: Q01DX009 (ip), vehicle: Klucel (hydroxypropylcellulose) (HPC) 96 % of control | dose: 175.0 mg/kg/injection, schedule: Q01DX009 (ip), vehicle: Klucel (hydroxypropylcellulose) (HPC) 102 % of control | dose: 350.0 mg/kg/injection, schedule: Q01DX009 (ip), vehicle: Klucel (hydroxypropylcellulose) (HPC) 107 % of control

CC(C)=CCC/C(C)=C\COc1cccc(C)c1
inactive: [17] 100 % of control | [18] 96 % of control | [19] 96 % of control

COc1cc([N+](=O)[O-])ccc1C#N
inactive: [9] 113 % of control | [10] 96 % of control

COc1ccc2nc3cc(Cl)ccc3c(Nc3ccc(O)cc3)c2c1
inactive: [11] 91 % of control | [13] 86 % of control

C=C(Cl)CSC(=S)N(C)C
inactive: [1] 98 % of control | [3] 98 % of control

CCCCCC(CN(C)C)C(=O)/C=C/c1c(Cl)cccc1Cl (stereo not drawn)
inactive: [7] 106 % of control

CC[P+](CC=C(C)C)(c1ccccc1)c1ccccc1
inactive: dose: 0.78 mg/kg/injection, schedule: Q04DX003 (ip), vehicle: Klucel (hydroxypropylcellulose) (HPC) 96 % of control | dose: 1.56 mg/kg/injection, schedule: Q04DX003 (ip), vehicle: Klucel (hydroxypropylcellulose) (HPC) 94 % of control | dose: 3.12 mg/kg/injection, schedule: Q04DX003 (ip), vehicle: Klucel (hydroxypropylcellulose) (HPC) 113 % of control and 88 % of control

C1=C(c2ccccc2)C(c2ccccc2)c2ccccc21 (stereo not drawn)
inactive: dose: 12.5 mg/kg/injection, schedule: Q04DX002 (ip), vehicle: saline with Tween-80 90 % of control | dose: 25.0 mg/kg/injection, schedule: Q04DX002 (ip), vehicle: saline with Tween-80 98 % of control | dose: 50.0 mg/kg/injection, schedule: Q04DX002 (ip), vehicle: saline with Tween-80 90 % of control | [16] 90 % of control
